In PMC11945475, “Nasal Administration of a Nanoemulsion Based on Methyl Ferulate and Eugenol Encapsulated in Chitosan Oleate: Uptake Studies in the Central Nervous System” (Pharmaceutics, 2025):

Legend:
[1] = Intravenous administration of Fer-Me to rats (bloodstream and CSF pharmacokinetics); type: in vivo, rat
Description: Charles River laboratories, Calco, Italy) bloodstream and CSF. […] The sample size (4 rats/group) has been chosen based on our previous studies. The experimental procedures were approved by the Italian Ministry of Health and were performed in accordance with the European Communities Council Directive of September 2010 (2010/63/EU). According to the ARRIVE guidelines, all possible efforts were made to minimize animal pain and discomfort and to reduce the number of experimental subjects. Fer-Me solution (2.5 mg/mL final concentration, 15% v/v EtOH content) was prepared by first dissolving Fer-Me in EtOH and then adding this latter solution to a saline solution (0.9% NaCl). […] The aqueous phase was then subjected to a double extraction with 1 mL of H2O-saturated ethyl acetate. […] Data were acquired and processed through CLASS-VP Software; version 7.2.1 (Shimadzu Italia, Milan, Italy). The mobile phase was eluted under isocratic conditions (0.8 mL/min) and was constituted by a mixture of acetic acid in H2O (0.4% v/v) and MeOH, whose ratio was 40:60 (v/v). The UV-Vis detector was set at 320 nm for the detection of Fer-Me, its hydrolysis product Fer, and Caf-Me, which was utilized as an internal standard during blood sample extraction. […] The average recoveries were approximately 40% for Fer and 58% for Fer-Me. For this reason, the concentrations of these compounds were determined by their peak area ratio with respect to the internal standard (Caf-Me). […] Fer-Me in vivo half-life (t1/2) in the rats' bloodstream was determined using nonlinear regression (exponential decay) of concentration values quantified at appropriate time intervals after infusion, further validated by applying linear regression to the semi-logarithmic plot.

[2] = set-up: method as in PMID 33547615; conditions: rats, Fer at doses up to 40 mg/kg; cited from earlier work
[3] = rat, Fer 1 mg/kg i.v.; cited from earlier work
[4] = rat, after Fer-Me 10 mg/kg i.v. infusion

Question: With COc1cc(/C=C/C(=O)O)ccc1O [Fer, ferulic acid] as the compound, how does the “Fer AUC as percentage of the Fer-Me AUC value” ([1]; rat bloodstream, after Fer-Me 10 mg/kg i.v.) read?
Answer: 1.3%

Question: And the “Fer concentration in the bloodstream” value ([1]; rat, about 20 min after end of Fer-Me 10 mg/kg i.v. infusion)?
Answer: 0.205 ± 0.050 µg/mL

Question: And the “AUC of hydrolysis product Fer in the bloodstream” value [1, 4]?
Answer: 8.4 ± 0.8 µg·min/mL

Question: What about the “C0 of hydrolysis product Fer in the bloodstream” value [1, 4] of the same compound?
Answer: 209 ± 1 ng/mL

Question: And the “time within which Fer blood concentration decreased to zero” value ([1]; rat, from the end of Fer-Me 10 mg/kg i.v. infusion)?
Answer: ≤ 60 min

Question: And the side effects [2]?
Answer: no side effects

Question: What about the “AUC in CSF” value [3] of the same compound?
Answer: 3.3 ± 0.3 µg·min/mL

Question: What about the “AUC in the bloodstream” value [3] of the same compound?
Answer: 244 ± 13 µg·min/mL

Question: What about the “Cmax in CSF” value [3] of the same compound?
Answer: 80 ± 10 ng/mL

Question: What about the “Tmax in CSF” value [3] of the same compound?
Answer: 1 h
